Experiments:
[1] = test system: Tyrosine-protein kinase ABL1 (Homo sapiens), P00519 [F317I]; conditions: Compound concentration 1000.0 nM
[2] = target: Cyclin-dependent kinase 7 (Homo sapiens) (UniProt P50613); conditions: Compound concentration 1000.0 nM
[3] = target: Serine/threonine-protein kinase 26 (Homo sapiens) (UniProt Q9P289); conditions: Compound concentration 1000.0 nM
[4] = target: Alpha-1B adrenergic receptor (Homo sapiens) (UniProt P35368); conditions: Compound concentration 10.0 uM
[5] = target: Inhibitor of nuclear factor kappa-B kinase subunit epsilon (Homo sapiens) (UniProt Q14164); conditions: Compound concentration 1000.0 nM
[6] = target: Protein-tyrosine kinase 6 (Homo sapiens) (UniProt Q13882); conditions: Compound concentration 1000.0 nM
[7] = target: Ribosomal protein S6 kinase alpha-1 (Homo sapiens) (UniProt Q15418); conditions: Compound concentration 1000.0 nM
[8] = target: Cyclin-dependent kinase 2 (Homo sapiens) (UniProt P24941); conditions: Compound concentration 1000.0 nM
[9] = target: Calcium/calmodulin-dependent protein kinase type 1D (Homo sapiens) (UniProt Q8IU85); conditions: Compound concentration 1000.0 nM
[10] = target: Histamine H1 receptor (Homo sapiens) (UniProt P35367); conditions: Compound concentration 10.0 uM
[11] = test system: Hepatocyte growth factor receptor (Homo sapiens), P08581 [Y1235D]; conditions: Compound concentration 1000.0 nM
[12] = target: LIM domain kinase 1 (Homo sapiens) (UniProt P53667); conditions: Compound concentration 1000.0 nM
[13] = target: Ephrin type-A receptor 3 (Homo sapiens) (UniProt P29320); conditions: Compound concentration 1000.0 nM
[14] = target: Ephrin type-A receptor 4 (Homo sapiens) (UniProt P54764); conditions: Compound concentration 1000.0 nM
[15] = target: Cytoplasmic tyrosine-protein kinase BMX (Homo sapiens) (UniProt P51813); conditions: Compound concentration 1000.0 nM
[16] = target: Mitogen-activated protein kinase 11 (Homo sapiens) (UniProt Q15759); conditions: Compound concentration 1000.0 nM
[17] = test system: Mast/stem cell growth factor receptor Kit (Homo sapiens), P10721 [D816V]; conditions: Compound concentration 1000.0 nM
[18] = target: Ephrin type-B receptor 6 (Homo sapiens) (UniProt O15197); conditions: Compound concentration 1000.0 nM
[19] = target: Tyrosine-protein kinase ITK/TSK (Homo sapiens) (UniProt Q08881); conditions: Compound concentration 1000.0 nM
[20] = target: Dual specificity tyrosine-phosphorylation-regulated kinase 2 (Homo sapiens) (UniProt Q92630); conditions: Compound concentration 1000.0 nM
[21] = target: Alpha-1B adrenergic receptor (Homo sapiens, UniProt P35368); assay: GPCRScan assay: inhibition of Alpha1B; design: radioligand conc. used [nm] 0.3 – 1.0, parental cells stable HEK
[22] = target: Phosphorylase b kinase regulatory subunit alpha, liver isoform (Homo sapiens) (UniProt P46019); conditions: Compound concentration 1000.0 nM
[23] = target: Mitogen-activated protein kinase kinase kinase 2 (Homo sapiens) (UniProt Q9Y2U5); conditions: Compound concentration 1000.0 nM
[24] = target: Macrophage colony-stimulating factor 1 receptor (Homo sapiens) (UniProt P07333); conditions: Compound concentration 1000.0 nM
[25] = target: TRAF2 and NCK-interacting protein kinase (Homo sapiens) (UniProt Q9UKE5); conditions: Compound concentration 1000.0 nM
[26] = target: Cyclin-dependent kinase 8 (Homo sapiens) (UniProt P49336); conditions: Compound concentration 1000.0 nM
[27] = target: Testis-specific serine/threonine-protein kinase 3 (Homo sapiens) (UniProt Q96PN8); conditions: Compound concentration 1000.0 nM
[28] = target: Cyclin-dependent kinase 5 (Homo sapiens) (UniProt Q00535); conditions: Compound concentration 1000.0 nM
[29] = target: Receptor tyrosine-protein kinase erbB-4 (Homo sapiens) (UniProt Q15303); conditions: Compound concentration 1000.0 nM
[30] = target: Serine/threonine-protein kinase OSR1 (Homo sapiens) (UniProt O95747); conditions: Compound concentration 1000.0 nM
[31] = target: Serine/threonine-protein kinase DCLK2 (Homo sapiens) (UniProt Q8N568); conditions: Compound concentration 1000.0 nM
[32] = target: 5-hydroxytryptamine receptor 2B (Homo sapiens) (UniProt P41595); conditions: Compound concentration 10.0 uM
[33] = target: Serine/threonine-protein kinase Chk1 (Homo sapiens) (UniProt O14757); conditions: Compound concentration 1000.0 nM
[34] = target: Dual specificity mitogen-activated protein kinase kinase 5 (Homo sapiens) (UniProt Q13163); conditions: Compound concentration 1000.0 nM
[35] = target: Beta-adrenergic receptor kinase 1 (Homo sapiens) (UniProt P25098); conditions: Compound concentration 1000.0 nM
[36] = target: Serine/threonine-protein kinase mTOR (Homo sapiens) (UniProt P42345); conditions: Compound concentration 1000.0 nM
[37] = target: Cyclin-dependent kinase 2 homolog (Plasmodium falciparum (isolate 3D7)) (UniProt P61075); conditions: Compound concentration 1000.0 nM
[38] = target: 5-hydroxytryptamine receptor 2A (Homo sapiens) (UniProt P28223); conditions: Compound concentration 10.0 uM
[39] = target: Peripheral plasma membrane protein CASK (Homo sapiens) (UniProt O14936); conditions: Compound concentration 1000.0 nM
[40] = target: Dual specificity protein kinase CLK3 (Homo sapiens) (UniProt P49761); conditions: Compound concentration 1000.0 nM
[41] = test system: Receptor-type tyrosine-protein kinase FLT3 (Homo sapiens), P36888 [N841I]; conditions: Compound concentration 1000.0 nM
[42] = target: 5-hydroxytryptamine receptor 1D (Homo sapiens) (UniProt P28221); conditions: Compound concentration 10.0 uM
[43] = target: Leucine-rich repeat serine/threonine-protein kinase 2 (Homo sapiens) (UniProt Q5S007); conditions: Compound concentration 1000.0 nM
[44] = target: Dual specificity mitogen-activated protein kinase kinase 4 (Homo sapiens) (UniProt P45985); conditions: Compound concentration 1000.0 nM
[45] = target: Serine/threonine-protein kinase haspin (Homo sapiens) (UniProt Q8TF76); conditions: Compound concentration 1000.0 nM

Chain of Testis-specific serine/threonine-protein kinase 3 (Homo sapiens) (Q96PN8 whole entry): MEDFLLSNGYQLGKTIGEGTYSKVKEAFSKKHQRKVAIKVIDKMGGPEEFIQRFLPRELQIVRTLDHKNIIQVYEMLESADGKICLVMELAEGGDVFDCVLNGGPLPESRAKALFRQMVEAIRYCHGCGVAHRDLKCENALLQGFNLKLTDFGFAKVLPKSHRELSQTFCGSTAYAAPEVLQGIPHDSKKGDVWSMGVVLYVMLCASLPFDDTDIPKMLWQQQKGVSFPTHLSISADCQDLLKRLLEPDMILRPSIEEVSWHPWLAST
Chain of Mitogen-activated protein kinase 11 (Homo sapiens) (Q15759 whole entry): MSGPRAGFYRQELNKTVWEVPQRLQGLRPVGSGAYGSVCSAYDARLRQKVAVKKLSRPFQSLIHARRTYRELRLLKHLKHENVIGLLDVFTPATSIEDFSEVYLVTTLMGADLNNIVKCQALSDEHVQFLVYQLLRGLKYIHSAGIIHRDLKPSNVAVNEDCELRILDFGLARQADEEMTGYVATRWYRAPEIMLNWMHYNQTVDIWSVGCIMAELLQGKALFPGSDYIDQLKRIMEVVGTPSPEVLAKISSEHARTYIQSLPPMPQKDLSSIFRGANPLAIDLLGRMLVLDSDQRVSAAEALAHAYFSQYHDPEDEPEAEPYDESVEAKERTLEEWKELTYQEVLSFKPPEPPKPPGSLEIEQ
Chain of LIM domain kinase 1 (Homo sapiens) (P53667 whole entry, looked up, the tested form may be a part): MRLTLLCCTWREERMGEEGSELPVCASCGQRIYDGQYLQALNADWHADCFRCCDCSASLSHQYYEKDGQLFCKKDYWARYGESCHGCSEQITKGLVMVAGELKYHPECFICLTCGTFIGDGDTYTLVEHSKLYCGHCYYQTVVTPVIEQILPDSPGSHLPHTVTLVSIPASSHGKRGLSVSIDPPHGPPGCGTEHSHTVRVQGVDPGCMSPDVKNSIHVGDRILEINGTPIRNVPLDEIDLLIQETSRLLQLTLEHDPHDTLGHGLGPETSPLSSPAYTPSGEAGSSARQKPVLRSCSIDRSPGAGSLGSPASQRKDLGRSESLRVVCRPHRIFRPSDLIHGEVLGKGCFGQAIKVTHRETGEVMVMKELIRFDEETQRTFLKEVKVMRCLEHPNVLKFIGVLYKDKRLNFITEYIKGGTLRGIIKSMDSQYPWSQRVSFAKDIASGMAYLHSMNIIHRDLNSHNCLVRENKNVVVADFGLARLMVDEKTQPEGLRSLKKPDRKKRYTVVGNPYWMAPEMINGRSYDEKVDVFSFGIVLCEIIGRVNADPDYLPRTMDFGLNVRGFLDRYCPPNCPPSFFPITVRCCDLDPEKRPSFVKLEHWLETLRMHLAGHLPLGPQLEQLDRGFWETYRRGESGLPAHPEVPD
Chain of Receptor tyrosine-protein kinase erbB-4 (Homo sapiens) (Q15303 whole entry): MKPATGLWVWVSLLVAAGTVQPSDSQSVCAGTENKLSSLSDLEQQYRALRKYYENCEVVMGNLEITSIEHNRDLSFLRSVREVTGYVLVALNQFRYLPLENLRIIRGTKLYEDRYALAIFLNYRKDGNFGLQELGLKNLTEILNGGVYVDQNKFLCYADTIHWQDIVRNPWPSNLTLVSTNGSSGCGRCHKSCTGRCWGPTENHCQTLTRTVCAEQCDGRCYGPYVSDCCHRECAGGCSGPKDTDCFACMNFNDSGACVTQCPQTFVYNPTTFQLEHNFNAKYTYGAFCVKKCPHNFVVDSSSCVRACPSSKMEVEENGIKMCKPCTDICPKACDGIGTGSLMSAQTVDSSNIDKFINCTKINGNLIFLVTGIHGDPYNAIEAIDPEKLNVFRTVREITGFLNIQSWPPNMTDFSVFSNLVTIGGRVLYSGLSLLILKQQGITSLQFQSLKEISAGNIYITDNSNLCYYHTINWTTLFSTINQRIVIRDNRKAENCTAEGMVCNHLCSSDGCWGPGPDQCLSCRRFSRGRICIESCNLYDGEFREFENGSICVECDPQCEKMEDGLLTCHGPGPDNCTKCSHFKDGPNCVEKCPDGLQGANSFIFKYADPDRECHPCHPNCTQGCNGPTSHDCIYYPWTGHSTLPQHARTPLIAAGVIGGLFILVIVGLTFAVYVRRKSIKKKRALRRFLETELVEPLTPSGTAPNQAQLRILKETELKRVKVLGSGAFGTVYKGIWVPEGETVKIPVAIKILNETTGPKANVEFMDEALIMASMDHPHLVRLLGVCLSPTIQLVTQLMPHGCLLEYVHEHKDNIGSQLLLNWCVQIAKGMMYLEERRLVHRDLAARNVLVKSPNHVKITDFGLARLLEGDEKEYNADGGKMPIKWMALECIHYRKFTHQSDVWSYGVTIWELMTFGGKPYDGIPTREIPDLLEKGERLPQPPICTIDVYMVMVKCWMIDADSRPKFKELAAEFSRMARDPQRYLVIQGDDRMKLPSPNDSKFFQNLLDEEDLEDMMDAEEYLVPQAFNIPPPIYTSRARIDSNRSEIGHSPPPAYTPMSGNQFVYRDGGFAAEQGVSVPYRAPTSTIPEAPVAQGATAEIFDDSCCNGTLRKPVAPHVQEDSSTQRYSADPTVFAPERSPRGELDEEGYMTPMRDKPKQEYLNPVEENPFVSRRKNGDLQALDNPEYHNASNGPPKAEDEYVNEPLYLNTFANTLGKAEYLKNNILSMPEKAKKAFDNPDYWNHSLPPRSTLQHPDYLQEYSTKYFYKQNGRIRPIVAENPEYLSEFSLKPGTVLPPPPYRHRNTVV
Chain of Protein-tyrosine kinase 6 (Homo sapiens) (Q13882 whole entry, looked up): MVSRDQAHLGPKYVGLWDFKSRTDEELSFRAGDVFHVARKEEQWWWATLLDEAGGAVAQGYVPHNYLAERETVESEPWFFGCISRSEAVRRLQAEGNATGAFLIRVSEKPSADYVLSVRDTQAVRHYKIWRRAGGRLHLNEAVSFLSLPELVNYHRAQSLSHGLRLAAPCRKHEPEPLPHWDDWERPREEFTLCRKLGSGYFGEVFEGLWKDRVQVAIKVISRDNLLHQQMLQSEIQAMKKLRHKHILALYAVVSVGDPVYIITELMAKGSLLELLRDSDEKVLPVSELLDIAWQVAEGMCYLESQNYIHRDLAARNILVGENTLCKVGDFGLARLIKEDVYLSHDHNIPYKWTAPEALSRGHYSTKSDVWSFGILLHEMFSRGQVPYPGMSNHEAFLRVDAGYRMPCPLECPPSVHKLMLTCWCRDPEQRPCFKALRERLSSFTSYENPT
Chain of Tyrosine-protein kinase ITK/TSK (Homo sapiens) (Q08881 whole entry): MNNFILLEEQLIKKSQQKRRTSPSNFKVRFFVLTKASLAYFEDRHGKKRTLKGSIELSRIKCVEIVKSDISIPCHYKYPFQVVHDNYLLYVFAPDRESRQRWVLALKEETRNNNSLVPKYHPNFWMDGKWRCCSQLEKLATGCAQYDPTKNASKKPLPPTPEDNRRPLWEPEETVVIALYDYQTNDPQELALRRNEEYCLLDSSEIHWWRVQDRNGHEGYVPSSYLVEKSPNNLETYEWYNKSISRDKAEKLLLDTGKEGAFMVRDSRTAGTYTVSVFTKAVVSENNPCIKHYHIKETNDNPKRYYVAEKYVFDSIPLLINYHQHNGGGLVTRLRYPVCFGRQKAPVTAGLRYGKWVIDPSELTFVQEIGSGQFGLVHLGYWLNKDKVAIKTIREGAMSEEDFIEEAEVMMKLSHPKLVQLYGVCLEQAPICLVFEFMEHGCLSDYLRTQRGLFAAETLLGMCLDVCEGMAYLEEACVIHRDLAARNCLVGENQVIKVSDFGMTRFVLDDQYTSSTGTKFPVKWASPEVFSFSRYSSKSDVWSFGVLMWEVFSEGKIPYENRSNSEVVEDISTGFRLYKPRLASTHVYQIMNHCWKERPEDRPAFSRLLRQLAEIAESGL
Chain of 5-hydroxytryptamine receptor 2B (Homo sapiens) (P41595 whole entry): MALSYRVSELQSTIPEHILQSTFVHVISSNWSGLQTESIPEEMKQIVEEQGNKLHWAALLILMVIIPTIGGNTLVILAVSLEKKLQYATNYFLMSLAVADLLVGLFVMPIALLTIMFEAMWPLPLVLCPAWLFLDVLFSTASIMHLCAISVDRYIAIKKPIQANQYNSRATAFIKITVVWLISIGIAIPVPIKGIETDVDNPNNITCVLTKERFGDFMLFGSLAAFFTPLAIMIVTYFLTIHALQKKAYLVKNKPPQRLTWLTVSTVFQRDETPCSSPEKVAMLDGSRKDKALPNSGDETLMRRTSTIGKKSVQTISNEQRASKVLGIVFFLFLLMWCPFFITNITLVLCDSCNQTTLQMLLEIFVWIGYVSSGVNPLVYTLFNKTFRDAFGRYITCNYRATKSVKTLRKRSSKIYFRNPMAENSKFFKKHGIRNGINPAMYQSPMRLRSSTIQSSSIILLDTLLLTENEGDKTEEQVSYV
Chain of Calcium/calmodulin-dependent protein kinase type 1D (Homo sapiens) (Q8IU85 whole entry, looked up): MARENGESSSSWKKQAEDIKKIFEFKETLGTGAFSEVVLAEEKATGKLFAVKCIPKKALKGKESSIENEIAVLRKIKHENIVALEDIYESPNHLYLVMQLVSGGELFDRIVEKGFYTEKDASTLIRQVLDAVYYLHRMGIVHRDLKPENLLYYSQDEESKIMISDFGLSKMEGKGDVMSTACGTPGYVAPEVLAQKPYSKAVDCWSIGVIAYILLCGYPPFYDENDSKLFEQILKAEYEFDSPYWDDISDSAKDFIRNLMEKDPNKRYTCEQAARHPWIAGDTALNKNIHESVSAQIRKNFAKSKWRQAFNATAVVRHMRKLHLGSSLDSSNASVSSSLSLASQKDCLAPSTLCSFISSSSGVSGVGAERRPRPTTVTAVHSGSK
Chain of Cyclin-dependent kinase 2 homolog (Plasmodium falciparum (isolate 3D7)) (P61075 whole entry): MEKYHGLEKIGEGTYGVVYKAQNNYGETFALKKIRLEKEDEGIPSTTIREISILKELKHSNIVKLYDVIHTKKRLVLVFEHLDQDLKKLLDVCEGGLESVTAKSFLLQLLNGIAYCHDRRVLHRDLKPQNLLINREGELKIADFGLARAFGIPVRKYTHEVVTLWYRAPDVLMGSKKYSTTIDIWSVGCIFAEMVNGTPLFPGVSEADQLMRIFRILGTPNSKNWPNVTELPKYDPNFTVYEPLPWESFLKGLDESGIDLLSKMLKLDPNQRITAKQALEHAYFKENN

Cc1c(C(=O)O)cc(-c2ccc(C3CCNCC3)cc2)c2ccc(-c3ccc(C(F)(F)F)cc3)cc12 [PPTN-NC] was tested, and the residual activity [1] was 100%, the residual activity [2] was 97% and the residual activity [3] was 100%. For the same compound, the inhibition [4] was 57.4%, the residual activity [5] was 100% and the residual activity [6] was 100%. For the same compound, the residual activity [7] was 100%, the residual activity [8] was 100% and the residual activity [9] was 100%. It also gave an inhibition [10] of 12.6%, a residual activity [11] of 100% and a residual activity [12] of 100%. For the same compound, the residual activity [13] was 100%, the residual activity [14] was 100% and the residual activity [15] was 100%. For the same compound, the residual activity [16] was 100%, the residual activity [17] was 100% and the residual activity [18] was 100%. The residual activity [19] was 100%, the residual activity [20] was 100% and the Ki [21] was 3.6 µM. The residual activity [22] was 100%, the residual activity [23] was 100% and the residual activity [24] was 100%. For the same compound, the residual activity [25] was 100%, the residual activity [26] was 100% and the residual activity [27] was 93%. The residual activity [28] was 100%, the residual activity [29] was 100% and the residual activity [30] was 100%. For the same compound, the residual activity [31] was 100%, the inhibition [32] was 6.6% and the residual activity [33] was 100%. The residual activity [34] was 100%, the residual activity [35] was 100% and the residual activity [36] was 96%. It also gave a residual activity [37] of 100%, an inhibition [38] of 23.4% and a residual activity [39] of 100%. It also gave a residual activity [40] of 100%, a residual activity [41] of 100% and an inhibition [42] of 30.1%. The residual activity [43] was 100%, the residual activity [44] was 100% and the residual activity [45] was 100%.
O=C(O)c1cc(-c2ccc(C3CCNCC3)cc2)c2ccc(-c3ccc(C(F)(F)F)cc3)cc2c1 [PPTN] showed a residual activity [1] of 100%, a residual activity [2] of 82% and a residual activity [3] of 100%. For the same compound, the inhibition [4] was 85.8%, the residual activity [5] was 100% and the residual activity [6] was 100%. The residual activity [7] was 100%, the residual activity [8] was 100% and the residual activity [9] was 100%. For the same compound, the inhibition [10] was 21.6%, the residual activity [11] was 100% and the residual activity [12] was 100%. For the same compound, the residual activity [13] was 100%, the residual activity [14] was 100% and the residual activity [15] was 100%. For the same compound, the residual activity [16] was 100%, the residual activity [17] was 100% and the residual activity [18] was 96%. The residual activity [19] was 100%, the residual activity [20] was 100% and the Ki [21] was 3.23 µM. For the same compound, the residual activity [22] was 100%, the residual activity [23] was 100% and the residual activity [24] was 100%. It also gave a residual activity [25] of 100%, a residual activity [26] of 100% and a residual activity [27] of 100%. The residual activity [28] was 100%, the residual activity [29] was 100% and the residual activity [30] was 100%. It also gave a residual activity [31] of 100%, an inhibition [32] of 7.95% and a residual activity [33] of 100%. For the same compound, the residual activity [34] was 96%, the residual activity [35] was 100% and the residual activity [36] was 90%. It also gave a residual activity [37] of 100%, an inhibition [38] of 29.1% and a residual activity [39] of 100%. It also gave a residual activity [40] of 100%, a residual activity [41] of 100% and an inhibition [42] of 33.6%. For the same compound, the residual activity [43] was 100%, the residual activity [44] was 100% and the residual activity [45] was 100%.

— ChEMBL document CHEMBL4507292 (2021)
